Assay results as given in patent US10576145B2, “CD200 inhibitors and methods of use thereof” (REGENTS OF THE UNIVERSITY OF MINNESOTA, priority 2014, dated 2020).

What was measured:
[1] = tested on: naïve splenocytes exposed to GL261 cells; assay: GL261 cells incubated with naive splenocytes in trans-well plate +/- CD200R antagonist: MDSC expansion and IFN-γ; format: cell-based, mouse
Experimental: (§1) FIGS. 17A-17B. CD200R antagonist blocks MDSC expansion and tumor suppressive effects. (FIG. 17A) Murine glioma GL261 was incubated with naïve splenocytes in a trans-well plate+/−CD200R antagonist and analyzed for MDSC expansion and cytokine production. (FIG. 17B) Naïve splenocytes were pulsed with purified CD200+/−CD200R antagonist and analyzed for MDSC expansion and arginase-I production. Error bars are ±SEM, statistical significance was determined by one-way ANOVA, post hoc analysis by Dunn's multiple comparison test, *p<0.05, ** p<0.001.
To determine the level of MDSC expansion when splenocytes were exposed to tumor cells, splenocytes were also harvested and purified as described above; 300,000 splenocytes were plated in the bottom of 24 well transwell plates containing a 0.4-micron filter. Following 24 hr incubation, 30,000 GL261 cells were plated on the transwell insert with and without the CD200R antagonist 6059. Total volume was 700 μl/well so that the insert was submerged in the media within the wells. Cells were incubated for 5 days, harvested, and stained with CD11b and GR-1 to determine MDSC levels. In another set of wells, OVA was added to the wells 24 hours after the splenocytes were plated. Following another 72 hr incubation, 3×10^5 purified CD8 T-cells isolated from an OT-I mouse and were added to the wells and incubated for an additional 72 hrs. […]

[2] = tested on: naïve splenocytes pulsed with purified CD200 protein; assay: Naive splenocytes pulsed with purified CD200 +/- CD200R antagonist: MDSC expansion and arginase-I; format: cell-based
Experimental: as §1
Spleens were harvested homogenized in RPMI media containing 10% FBS, penicillin/streptomycin (100 U/ml), and 0.1 mg/ml Normocin (Invivogen). Cells were then filtered using a 70-micron filter, centrifuged, and resuspended in 5 ml of Ammonium-Chloride-Potassium buffer and incubated for 5 minutes at room temperature to lyse RBCs. […] Following 24 h incubation, CD200R antagonist peptide 6059 was added to the appropriate wells, incubated for 20 min prior to adding 5 μg of purified CD200 protein (Sino Biological) and incubated for a further 72 hrs, harvested and analyzed for anti-CD11b and […] population using an LSR II flow cytometer. […] Following incubation, 50 μl culture supernatant was analyzed for IFN-γ using a flow cytometric bead array according to the manufacturer's protocol (BD Biosciences). […]

[3] = target: T1, CD200R (Mus musculus, UniProt Q9ES57); conditions: reportedly; cited from earlier work
T1 sequence (Q9ES57 26-326): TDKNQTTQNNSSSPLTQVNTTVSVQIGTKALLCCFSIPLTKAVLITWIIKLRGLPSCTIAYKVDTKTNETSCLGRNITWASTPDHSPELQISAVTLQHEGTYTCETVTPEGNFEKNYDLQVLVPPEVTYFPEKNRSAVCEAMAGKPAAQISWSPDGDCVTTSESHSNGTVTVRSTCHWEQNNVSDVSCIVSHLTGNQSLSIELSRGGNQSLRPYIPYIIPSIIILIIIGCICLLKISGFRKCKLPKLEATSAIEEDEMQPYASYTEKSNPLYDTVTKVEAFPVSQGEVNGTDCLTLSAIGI

## NTIGDGGCY [Antagonist 6059]
[1]; trans-well with GL261 cells
  IFN-γ production of OT-I CD8 T-cells in response to OVA: blocked both the expansion of MDSCs as well as the production of IFN-γ
[1]; trans-well, 5 days
  Expansion of CD11b+Gr1+ MDSC induced by GL261 cells: blocked both the expansion of MDSCs
[2]
  CD200 induced arginase-I secretion: blocked CD200 induced arginase-I secretion
[2]; pre-incubation with antagonist
  CD200 induced MDSC expansion: significantly blocked CD200 induced MDSC expansion
[3]
  Competition with CD200 for binding to CD200R: outcompetes the intact CD200 protein for binding to the CD200R
